Results taken from US20240000939A1, “METHODS OF PERSONALIZED PRECONDITIONING FOR CELL THERAPY” (priority 2021, published 2024).
Entries after “also recorded” stand apart in the source; their conditions may differ.

Assays:
[1] = Estimated fludarabine exposure (AUC) calculated with a population PK model; design: species or system human
[2] = test system: R/R B-cell ALL (B-ALL); experiment: Retrospective PRWCC analysis: response, relapse, composite endpoint (relapse or loss of BCA) and overall survival after tisagenlecleucel; assay type: in vivo, human; settings: for HR, overall survival, patients with high pre-infusion disease burden: sub-optimal fludarabine exposure
[3] = Retrospective PRWCC analysis: toxicity (CRS, neurotoxicity/ICANS, infection, neutropenia, cause of death) after tisagenlecleucel; assay type: in vivo, human
Protocol: Study Design. A retrospective analysis of pediatric and young adult patients with R/R B-ALL as part of the Pediatric Real-World CAR Consortium (PRWCC; n=15 centers) was conducted. Two hundred (n=200) patients underwent collection/manufacture for planned standard-of-care CD19-specific CAR T cell therapy (tisagenlecleucel).
Outcomes of interest. The main outcomes of interest were overall survival (OS), cumulative incidence of relapse (CIR), and the cumulative incidence of a composite endpoint (relapse or loss of BCA). Other outcomes of interest were response rates, cytokine release syndrome (CRS), and immune effector cell associated neurotoxicity syndrome (ICANS). Complete remission (CR) was defined as ≤5% bone marrow blasts by morphology, absence of circulating lymphoblasts, and no evidence of extramedullary disease. MRD negativity was defined as <0.01% abnormal B cells assessed by flow cytometry. Relapse was defined as any (medullary or extramedullary) evidence of hematologic, cytogenetic, and/or molecular recurrence of primary disease. CD19-positive B cell recovery was defined as any detectable CD19-positive B cells ([…]) on a peripheral blood lymphocyte flow cytometry panel. Toxicity grading was described according to ASTCT (Lee et al., Biol Blood Marrow Transplant. 04 2019; 25 (4):625-638) for CRS and ICANS. Additionally, patients were further delineated based on their disease burden: high disease burden (≥5% lymphoblasts, CNS3 disease and/or isolated EM disease), and no (undetectable) or low disease burden (<5% lymphoblasts, ≤CNS2 disease, and/or no detectable EM disease) based off the previous PRWCC analysis (Schultz et al., Blood. 2020; 136 (Supplement 1):14-15). The fludarabine exposure, area under the curve (AUC), for each patient was calculated using a population PK model as previously described in Langenhorst et al., Clin Pharmacokinet. May 2019; 58 (5):627-637. The patient variables required to calculate an estimated fludarabine exposure include estimated GFR (using either the Cockroft-Gault or Schwartz equation depending on age), actual body weight, height, and dosage of fludarabine utilized where actual body weight and estimated GFR are the best predictors of fludarabine PK (Langenhorst et al., Clin Pharmacokinet. May 2019; 58 (5):627-637).
Statistical Analysis. For all analyses, tisagenlecleucel infusion date was considered time zero (0). The impact of different factors on the chance of response was assessed through Mann-Whitney-Wilcoxon test for continuous variables, Chi-squared or Fisher's exact test for categorical variables (univariable analysis), and logistic regression (multivariable analysis). OS for all treated patients was defined as the time from infusion to death from all causes. OS in responding patients was defined as time from day of response (day 28 from CAR infusion) to death from all causes. Patients alive were censored at their last follow-up date. Time-to-relapse was defined as the time from the date of infusion to the date of disease relapse, while time-to-composite endpoint was defined as the time from the date of infusion to the date of either disease relapse or loss of BCA, whichever came first. For both endpoints, patients alive without disease relapse (and loss of BCA for composite endpoint) were censored at their date of last follow-up. Death and allo-HCT without disease relapse (and loss of BCA) were considered competing events. […]

[4] = multivariable, AUC <13.8 (sub-optimal) vs ≥13.8 mg*hr/L (ref), responding patients
[5] = univariable, AUC <13.8 vs ≥13.8 mg*hr/L (ref)
[6] = univariable, AUC <13.8 vs ≥13.8 mg*hr/L (ref), responding patients

Nc1nc(F)nc2c1ncn2[C@@H]1O[C@H](CO)[C@@H](O)[C@@H]1O [fludarabine, reference compound]
fludarabine AUC threshold of interest for disease relapse ([1]; Example 1, exposure analyzed as continuous variable (FIG. 1)): 13800 ng·h/mL | optimal fludarabine exposure (AUC) ([1]; Example 2, where hazard ratio curve for CIR crosses HR=1): ≥ 13800 ng·h/mL | odds ratio of response by cumulative Flu AUC (mg*hr/L) ([2]; multivariable analysis, AUC as continuous variable): 0.81 | HR, overall survival in responding patients ([2]; multivariable, AUC <13.8 (sub-optimal) vs ≥13.8 mg*hr/L (ref)): 1.97 | HR, overall survival in all treated patients ([2]; multivariable, AUC <13.8 (sub-optimal) vs ≥13.8 mg*hr/L (ref), entire cohort): 1.53 | HR, cumulative incidence of composite endpoint (relapse or loss of B-cell aplasia) [2, 4]: 1.96 | HR, cumulative incidence of relapse [2, 4]: 2.45 | HR, overall survival, patients with high pre-infusion disease burden ([2]; all treated patients): 2.27 | HR, overall survival, patients with high pre-infusion disease burden ([2]; responding patients only): 3.50 | HR, overall survival in all treated patients [2, 5]: 1.51 | HR, overall survival in responding patients [2, 5]: 2.25 | HR, cumulative incidence of composite endpoint (relapse or loss of B-cell aplasia) [2, 6]: 1.77 | HR, cumulative incidence of relapse [2, 6]: 1.95 | patients who died from infection ([3]; all received suboptimal fludarabine): four | infection risk with increased fludarabine exposure (≥13.8 mg*hr/L) ([3]; in vivo): no apparent increased infection risk | association of optimal fludarabine exposure with toxicity (CRS, neurotoxicity) ([3]; neurotoxicity limited to ICANS graded patients): not associated with increased CRS or neurotoxicity; also recorded: No increase in toxicity | ICANS grade ≥3 (sICANS) ([3]; optimal flu (≥13.8 mg*hr/L), 5/67): 7% | ICANS grade ≥3 (sICANS) ([3]; optimal flu (≥13.8 mg*hr/L), 5/67, listed as flu): (7%) | ICANS grade ≥1 ([3]; optimal flu (≥13.8 mg*hr/L), 15/67): 22% | ICANS grade ≥1 ([3]; optimal flu (≥13.8 mg*hr/L), 15/67, listed as flu): (22%) | CRS grade ≥3 (sCRS) ([3]; optimal flu (≥13.8 mg*hr/L), 18/102): 18% | CRS grade ≥3 (sCRS) ([3]; optimal flu (≥13.8 mg*hr/L), 18/102, listed as flu): (18%) | infection post CAR T cell therapy ([3]; optimal fludarabine exposure, 36/102): 35% | Grade 4 neutropenia ([3]; patients receiving optimal fludarabine): 65% | Grade 4 neutropenia ([3]; patients receiving suboptimal fludarabine): 67% | ICANS grade ≥3 (sICANS) ([3]; sub-optimal flu (<13.8 mg*hr/L), 4/31): 13% | ICANS grade ≥3 (sICANS) ([3]; sub-optimal flu (<13.8 mg*hr/L), 4/31, listed as flu): (13%) | ICANS grade ≥1 ([3]; sub-optimal flu (<13.8 mg*hr/L), 9/31): 29% | ICANS grade ≥1 ([3]; sub-optimal flu (<13.8 mg*hr/L), 9/31, listed as flu): (29%) | CRS grade ≥3 (sCRS) ([3]; sub-optimal flu (<13.8 mg*hr/L), 15/50): 30% | CRS grade ≥3 (sCRS) ([3]; sub-optimal flu (<13.8 mg*hr/L), 15/50, listed as flu): (30%) | infection post CAR T cell therapy ([3]; suboptimal fludarabine exposure, 21/50): 42%

tisagenlecleucel
12-month OS ([2]; Example 1): 75% | 12-month cumulative incidence of relapse in responders ([2]; Example 1): 39.2% | 12-month CIR in responding patients ([2]; Example 2): 36.4% | 12-month OS ([2]; Example 2, entire cohort): 75.1% | 24-month OS ([2]; Example 2, entire cohort): 56.5% | cumulative incidence of composite endpoint (relapse or loss of BCA) ([2]; at 12-months, responding patients): 55.2% | loss of BCA post CAR ([2]; n=152): (34%) | relapsed post CAR ([2]; n=152): (36%) | CD19-negative relapse ([2]; share of relapses post CAR): (45%) | CD19-positive relapse ([2]; share of relapses post CAR): (55%) | severe neurotoxicity (grade 3 or higher) ([3]; all patients, 12/152): 8% | severe CRS (sCRS; grade 3 or higher) ([3]; all patients, 33/152): 22% | neurotoxicity ([3]; all patients, 36/152): 24% | infection post CAR T cell therapy ([3]; all patients, 57/152): 38% | Grade 4 neutropenia ([3]; all patients, 97/148): 66% | CRS ([3]; all patients, 97/152): 64% | CRS grade 1 ([3]; n=152): (24%) | CRS grade 2 ([3]; n=152): (18%) | CRS grade 3 ([3]; n=152): (11%) | CRS grade 4 ([3]; n=152): (10%) | CRS grade 5 ([3]; n=152): (1%) | CRS grade none ([3]; n=152): (36%) | Neurotoxicity grade 1 ([3]; n=152): (11%) | Neurotoxicity grade 2 ([3]; n=152): (5%) | Neurotoxicity grade 3 ([3]; n=152): (5%) | Neurotoxicity grade 4 ([3]; n=152): (2%) | Neurotoxicity grade 5 ([3]; n=152): (1%) | Neurotoxicity grade none ([3]; n=152): (76%) | Cause of death: ARDS/cardiac arrest ([3]; share of deaths): (2%) | Cause of death: CRS ([3]; share of deaths): (2%) | Cause of death: Infection ([3]; share of deaths): (10%) | Cause of death: Leukemia ([3]; share of deaths): (74%) | Cause of death: Neurotoxicity ([3]; share of deaths): (2%) | Cause of death: Transplant related ([3]; share of deaths): (7%)
